According to article PMC7651859, “Identification of 6-amino-1H-pyrazolo[3,4-d]pyrimidines with in vivo efficacy against visceral leishmaniasis” (RSC Medicinal Chemistry, 2020):
Values after ≈ are worked out from the molar mass of the structure shown. Like-named read-outs stand apart in the source and are kept apart here.

Key:
[1] = system: L. donovani amastigotes; assay: Ld InMac intramacrophage Leishmania donovani assay; assay type: cell-based; details: Leishmania donovani; L. donovani amastigotes in THP-1 cells; mean of n ≥ 3; read-out: Ld InMac pEC50 (converted)
Excerpt: (§1) For the identification of DDD853651/GSK3186899, which contained a trans-1,4-cyclohexyldiamine, a key strategy was to optimise the balance between potency in the intracellular Leishmania assay (L. donovani in THP-1 cells, referred to as Ld InMac assay[9]) and solubility.[10] In that case, we focused on 2 (Table 1), where the sulfonamide was required for potency but was poorly soluble. […] To this end, we examined a 4-aminopiperidine central unit with both sulfonamide and amide substituents (Table 1). […] We therefore selected 4 as a suitable start-point for further chemistry. […] We noted that either lengthening the linker to the aromatic ring, or removing it, led to a loss of activity (6 and 7 respectively).
(§2) Intramacrophage Leishmania donovani Assay

[2] = system: THP-1 cells; assay: THP-1 host cell toxicity readout of the Ld InMac assay; assay type: cell-based; details: Homo sapiens; host THP-1 cells; mean of n ≥ 3; read-out: THP-1 pEC50 (converted)
Excerpt: as §1, §2

[3] = CAD kinetic aqueous solubility; assay type: physicochemical; details: pH 7.4, pH7.4 phosphate buffered saline
Protocol: CAD Aqueous Solubility 11
5µl of 10mM DMSO stock solution is diluted to 100 µ l with pH7.4 phosphate buffered saline,
equilibrated for 1 hour at room temperature and filtered through Millipore MultiscreenHTS-PCF

[4] = Stability in mouse liver microsomes (intrinsic clearance); assay type: in vitro ADME; details: mouse liver microsomal intrinsic clearance, 0.5 μM
Protocol: Stability in Microsomes 10
Test compound (0.5 μM) was incubated with female CD1 mouse (Xenotech) liver microsomes and their action started with addition of excess NADPH (8 mg/mL 50 mM potassium phosphate buffer, pH 7.4). Immediately, at time zero, then at 3, 6, 9, 15, and 30 min, an aliquot (50 μL) of the incubation mixture was removed and mixed with acetonitrile (100 μL) to stop the reaction.
Internal standard was added to all samples, the samples centrifuged to sediment precipitated protein, and the plates then sealed prior to UPLC-MS/MS analysis using a Xevo TQs micro (Waters Corporation, USA). XLfit (IDBS, UK) was used to calculate the exponential decay and consequently the rate constant (k) from the ratio of the peak area of test compound to internal standard at each time point. The rate of intrinsic clearance (Cl i) of each test compound was then calculated using the equation Cl i (mL/min/g liver) = k × V × microsomal protein yield, where V (mL/mg protein) is the incubation volume/mg protein added and […]
microsomal protein yield is taken as 52.5 mg protein/g liver. Verapamil (0.5 μM) was used as a positive control to confirm acceptable assay performance. […]

[5] = FaSSIF solubility; assay type: physicochemical; details: fasted state simulated intestinal fluid (FaSSIF)
[6] = Oral pharmacokinetics in Balb-c mice; assay type: in vivo; details: mouse, blood, female Balb-c mice, 100 mg kg^–1
Excerpt: On this basis, 48 and 50 were progressed into orally dosed pharmacokinetic studies in female Balb-c mice (Table 6), with both having sufficient Cmax (the highest concentration of a drug in the blood) and AUC (area under the curve) to progress into the previously reported mouse efficacy model of VL.[10]

[7] = system: L. donovani; assay: Mouse efficacy model of VL; assay type: in vivo; details: for % Suppression of parasite load: liver load
Protocol: page 37: microsomal protein yield is taken as 52.5 mg protein/g liver. Verapamil (0.5 μM) was used as a positive control to confirm acceptable assay performance. In Vivo Efficacy Studies 10 Groups of female BALB/c mice (5 per group) were inoculated intravenously with approximately […] L. donovani amastigotes (LV9; WHO designation: MHOM/ET/67/HU3) harvested from the spleen of an infected hamster. From day 7 post infection, groups of mice were treated with either drug vehicle only (orally), with control drugs Miltefosine 30 mg/kg orally and Pentostam 15 mg/kg subcutaneously (only in compound 48 efficacy experiment) or with test compound at the appropriate dose. Miltefosine and Pentostam were dosed once daily for 5 days and test compounds were dosed twice daily for 5 days. Drug dosing solutions were prepared fresh each day and the vehicle was deionized water for Miltefosine and Pentostam, or 0.5% HPMC, 0.4% Tween 80, and 0.5% benzyl alcohol for test compounds. On day 14 all animals were humanely euthanized, liver smears made, and parasite burdens determined by counting the number of amastigotes/500 liver cells. Parasite burden is expressed in Leishman−Donovan units (LDU): the number of amastigotes per 500 nucleated cells multiplied by the organ weight in milligrams. S-37

[8] = biological target: T1, ERK8 (Homo sapiens, UniProt Q8TD08); assay: Human kinase panel and IC50, ERK8; assay type: biochemical
T1 sequence (Q8TD08 1-544): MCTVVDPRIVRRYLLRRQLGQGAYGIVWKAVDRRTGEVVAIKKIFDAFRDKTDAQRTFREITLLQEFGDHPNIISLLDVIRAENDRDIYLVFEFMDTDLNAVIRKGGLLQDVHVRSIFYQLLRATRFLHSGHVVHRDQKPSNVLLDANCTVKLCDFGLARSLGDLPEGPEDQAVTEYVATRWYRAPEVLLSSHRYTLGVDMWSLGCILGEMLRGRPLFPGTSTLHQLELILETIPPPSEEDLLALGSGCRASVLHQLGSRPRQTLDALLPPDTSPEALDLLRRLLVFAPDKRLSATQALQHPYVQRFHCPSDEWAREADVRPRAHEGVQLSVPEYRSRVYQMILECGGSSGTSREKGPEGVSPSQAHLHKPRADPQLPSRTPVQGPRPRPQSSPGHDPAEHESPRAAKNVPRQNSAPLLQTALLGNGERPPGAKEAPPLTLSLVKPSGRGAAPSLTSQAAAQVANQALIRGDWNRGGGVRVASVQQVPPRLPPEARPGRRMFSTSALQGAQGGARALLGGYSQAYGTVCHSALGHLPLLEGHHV
Excerpt: (§3) From this, only 4 kinases were inhibited at >40% (ERK8 [extracellular signal-regulated kinases], p38α and p38β MAPK [mitogen-activated protein kinases] and CDK2 [cyclin dependant kinase]).

[9] = biological target: p38α MAPK (Homo sapiens, UniProt Q16539); assay: Human kinase panel, p38α MAPK; assay type: biochemical; details: panel of 140 human kinases
Sequence of p38α MAPK (Q16539 whole entry): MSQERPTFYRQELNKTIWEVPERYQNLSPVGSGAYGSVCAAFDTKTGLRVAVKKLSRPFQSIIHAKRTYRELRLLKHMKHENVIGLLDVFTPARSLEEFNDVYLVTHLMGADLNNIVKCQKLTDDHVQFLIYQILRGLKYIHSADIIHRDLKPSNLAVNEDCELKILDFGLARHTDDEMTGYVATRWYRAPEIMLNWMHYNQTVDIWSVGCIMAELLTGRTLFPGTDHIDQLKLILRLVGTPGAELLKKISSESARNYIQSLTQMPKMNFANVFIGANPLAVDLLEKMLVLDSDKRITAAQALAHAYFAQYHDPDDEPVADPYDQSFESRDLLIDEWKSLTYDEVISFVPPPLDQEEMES
Excerpt: as §3

[10] = biological target: p38β MAPK (Homo sapiens, UniProt Q15759); assay: Human kinase panel and IC50, p38β MAPK; assay type: biochemical
Sequence of p38β MAPK (Q15759 whole entry): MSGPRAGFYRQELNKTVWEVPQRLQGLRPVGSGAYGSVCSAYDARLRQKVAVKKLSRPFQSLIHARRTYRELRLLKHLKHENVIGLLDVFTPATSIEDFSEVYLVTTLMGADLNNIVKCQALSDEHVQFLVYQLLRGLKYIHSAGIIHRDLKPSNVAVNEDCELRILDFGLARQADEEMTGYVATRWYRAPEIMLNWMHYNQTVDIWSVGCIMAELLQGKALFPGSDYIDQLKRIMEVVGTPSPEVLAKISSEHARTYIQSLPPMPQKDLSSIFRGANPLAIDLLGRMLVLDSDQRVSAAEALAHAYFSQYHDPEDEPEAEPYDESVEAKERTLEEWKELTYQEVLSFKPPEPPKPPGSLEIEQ
Excerpt: as §3

[11] = biological target: CDK2 (Homo sapiens, UniProt P24941); assay: Human kinase panel, CDK2; assay type: biochemical; details: panel of 140 human kinases
Excerpt: as §3

[12] = Rat dose-escalation PK study; assay type: in vivo
[13] = 10 μM, panel of 140 human kinases
[14] = dose increased from 100 to 300 mg kg^–1

Structure (SMILES): O=C(Cc1ccc(F)c(F)c1)N1CCC(Nc2ncc3c(N4CCOCC4)n[nH]c3n2)CC1 [Compound 48]
- EC50 [1]: 794 nM
- EC50 [2]: > 50100 nM
- solubility at 1 h [3]: ≥ 465 µM
- Cli mouse [4]: 1.6 ml min^–1 g^–1
- solubility [5]: 97 µg/mL (≈ 212 µM)
- AUC [6]: 20900 ng·h/mL
- Cmax [6]: 5760 ng/mL
- Tmax [6]: 1 h
- % Suppression of parasite load ([7]; 30 mg kg^–1 b.i.d. for 5 days PO): 60%
- % Suppression of parasite load ([7]; 100 mg kg^–1 b.i.d. for 5 days PO): 98%
- minimum efficacious dose ([7]; mouse model of VL): 100 mg kg^–1
- inhibition at 10 µM [8, 13]: > 40%
- IC50 ([8]; full IC50 curve): 110 nM
- inhibition at 10 µM [9]: > 40%
- inhibition at 10 µM [10, 13]: > 40%
- IC50 ([10]; full IC50 curve): 550 nM
- inhibition at 10 µM [11]: > 40%
- Cmax ([12]; blood, 10 mg kg^–1): 229 ng/mL
- Tmax ([12]; blood, 10 mg kg^–1): 0.67 h
- AUC(0-t) ([12]; blood, 10 mg kg^–1, read-out: AUC (0-Tlast)): 488 ng·h/mL
- Cmax ([12]; blood, 100 mg kg^–1): 5520 ng/mL
- Tmax ([12]; blood, 100 mg kg^–1): 6 h
- AUC(0-t) ([12]; blood, 100 mg kg^–1, read-out: AUC (0-Tlast)): 50600 ng·h/mL
- Cmax ([12]; blood, 300 mg kg^–1): 6760 ng/mL
- Tmax ([12]; blood, 300 mg kg^–1): 6.67 h
- increase in AUC(0-Tlast) [12, 14]: 1.7 fold
- increase in Cmax [12, 14]: 1.2 fold
- AUC(0-t) ([12]; in vivo, 300 mg kg^–1, read-out: AUC (0-Tlast)): 84600 ng·h/mL
